{
  "source": "patent EP0636633A1",
  "about": "“A triterpenoid saponin, extraction thereof and use to treat or prevent diabetes mellitus” (KOWA CHEMICAL INDUSTRIES CO., LTD., priority 1993, dated 1995)",
  "key": {"DDF male mice": {"system": "DDF male mice", "assay": "Acute toxicity test, forced oral administration", "conditions": "for Number of dead animals: mouse, in vivo, po", "protocol": "An acute toxicity test was effected by the following procedure.\nUse was made of DDF male mice having a weight of 25 g, and each group consisted of 10 animals. The animals were ingested a solid feed (for breeding) while they freely got tap water as drinking water.\nThe triterpenoid saponin was suspended in 1% CMC physiological saline to a concentration of 200 mg/ml.\nThe test substance was administered with a probe by forced oral administration. The dose was 5000 mg/kg for one group and 2500 mg/kg for another group. Test period was 7 days. After the administration, the animals were continuously observed for 3 hr, and, thereafter, observation was effected of general symptoms every 6 hr."}, "sweet taste responses": {"system": "sweet taste responses", "assay": "sweet taste response inhibition test", "type": "in vivo", "conditions": "for taste of Aqueous Sucrose Solution, panelists ①②③④⑤: after 0.08% sample solution kept in mouth 2 min", "protocol": "A sweet taste response inhibition test was effected for the triterpenoid saponin of the present invention and Gymnemic acid 1 and Gymnemic acid 2 obtained from Gymnema sylvestre, R. Br. known to have an inhibitory effect on glucose adsorption.\nThe triterpenoid saponin prepared in Example 1 and Gymnemic acid 1 and Gymnemic acid 2 were dissolved in a 0.01 M/liter aqueous sodium bicarbonate (NaHCO₃) solution to prepare a 0.08% triterpenoid saponin solution, a 0.08% Gymnemic acid 1 solution and a 0.08 % Gymnemic acid 2 solution.\nSeparately, 0.1 M/liter, 0.2 M/liter, 0.3 M/liter, 0.4 M/liter and 0.5 M/liter aqueous sucrose solutions were previously prepared. The sweet taste response inhibition test was effected according to the following procedure.\n• 1) 5 ml of the triterpenoid saponin solution or Gymnemic acid 1 or 2 solution was kept in mouth so that it was spread in the whole mouth. • 2) 2 min after that, the sample solution was spit out, and the mouth was sufficiently rinsed with distilled water. • 3) The above-described aqueous sucrose solutions were successively kept in the mouth in the order of concentration from the lowest to the highest, and the sucrose concentration of the solution which was first sweet to the taste was recorded."}},
  "data": [
    {"compound": "CC1(C)CC[C@]2(CO)[C@@H](O)C[C@]3(C)C(=CC[C@@H]4[C@@]5(C)CC[C@H](O[C@@H]6O[C@H](C(=O)O)[C@@H](O)[C@H](O)[C@H]6O[C@@H]6O[C@H](CO)[C@@H](O)[C@H](O)[C@H]6O)C(C)(C)[C@@H]5CC[C@]43C)[C@@H]2C1", "note": "[triterpenoid saponin, (3β,16β)-16,28-dihydroxyolean-12-en-3-yl-2-O-β-D-glucopyranosyl-β-D-glucopyranosiduronic acid]", "values": [
      {"measurement": "Other general symptoms", "setting": "DDF male mice; Dose 2500 mg/kg, oral, 7 days", "value": "Do."},
      {"measurement": "Other general symptoms", "setting": "DDF male mice; Dose 5000 mg/kg, oral, 7 days", "value": "None of the animals exhibited any abnormal symptom."},
      {"measurement": "toxicity", "setting": "DDF male mice; acute toxicity test, oral, mice, 7 days", "value": "no toxicity was observed"},
      {"measurement": "Number of dead animals", "setting": "DDF male mice; 2500 mg/kg", "value": 0},
      {"measurement": "Number of dead animals", "setting": "DDF male mice; 5000 mg/kg", "value": 0},
      {"measurement": "inhibitory effect on the sweet taste responses", "setting": "sweet taste responses; 0.08% sample solution", "value": "no inhibitory effect on the sweet taste responses"},
      {"measurement": "taste of Aqueous Sucrose Solution, panelists ①②③④⑤", "setting": "sweet taste responses; sucrose 0.1 M/liter", "value": "Δ○○Δ○"},
      {"measurement": "taste of Aqueous Sucrose Solution, panelists ①②③④⑤", "setting": "sweet taste responses; sucrose 0.2 M/liter", "value": "○○○○○"}
    ]}
  ]
}
